Results published in US9192617B2, “Pharmaceutical composition, methods for treating and uses thereof” (Boehringer Ingelheim International GmbH, priority 2012, dated 2015).
“Also recorded” adds a separate entry of the source.

How the values were obtained:
Assay type in all cases: in vivo, Female Wistar rats
[1] = Oral glucose (2 g/kg) tolerance test on Day 30 in DIO rats; conditions: for glucose tolerance (glucose AUC): OGTT 2 g/kg after 30 days of treatment, vs vehicle, FIG. 2a; for AUC of insulin during OGTT: OGTT Day 30, FIG. 2b
Description: (§1) In combination studies, sibutramine is dosed once daily with empagliflozin. Orlistat is dosed twice daily: once at the start of the dark phase (in combination with empagliflozin) and again four hours later. Blood samples are taken after approximately 2 and 4 weeks of dosing after a 4 h fast, with the exception of the combination studies with sibutramine and orlistat where samples are taken after an overnight fast. In the studies where empagliflozin is given with either orlistat or sibutramine, animals undergo an oral glucose (2 g/kg) tolerance test on Day 30 after an overnight fast. Blood samples are taken immediately before and 10, 20, 30, 60 and 120 minutes post glucose administration. At the conclusion of each experiment, carcasses are saved for body composition analysis.
(§2) Blood is collected in EDTA-coated collection tubes (Sarstedt) and immediately spun in a cooled centrifuge and the plasma stored frozen. Subsequently, plasma is assayed for content of one or more of the following: glucose, insulin, leptin, glycerol, and triacylglycerol (TAG) content. Blood (collected in an EDTA tube and frozen immediately) is assayed for HbA1c.
(§3) Commercially available enzyme-linked immunosorbent assays (ELISAs) and colorimetric kits are used to assay glucose (Thermo Electron Corp., PA, USA), insulin (Mercodia, Uppsala, Sweden), glycerol and true triglycerides (Sigma, Mo., USA), and leptin (Assay Designs, MI, USA). HbA1c is assayed by a direct enzymatic assay (Diazyme, CA, USA).
(§4) Plasma data are analysed by a general linear model with treatment as a factor. Where appropriate, data undergo a log transformation prior to analysis. Baseline plasma data and Day 1 body weight are included as covariates. HbA1c data are analysed by a robust regression model using M estimation (Huber weighting, using the default parameter c=1.345). Baseline HbA1c levels and Day 1 body weight are included as covariates. Since no differences are observed between the two and four week changes in plasma parameters, only the final plasma data for each study is detailed.

[2] = Plasma metabolic parameters on Day 30 in DIO rats; conditions: FIG. 3a; for plasma glucose / plasma insulin: after 30 days of treatment, vs vehicle; for plasma leptin: Day 30, overnight fast
Description: as §1, §2, §3, §4

[3] = Carcass body composition (FoodScan NIR) of DIO rats at study conclusion; conditions: FIG. 3b
Description: Carcass composition (body fat, protein and water) is determined using the FoodScan NIR (near infra-red) meat analyser (Foss, UK). Carcasses are milled at the temperature of liquid nitrogen and stored at −20° C. in sealed containers.
Carcass composition data are analysed by robust regression with treatment as factors. Day 1 body weight is included as a covariate.

[4] = Body weight in diet-induced obese (DIO) rats, chronic oral dosing; conditions: Day 29, FIG. 1
Description: Female Wistar rats (weight range 250-300 g upon arrival) are obtained from Charles River (Margate, Kent) and housed in pairs or threes at a temperature of 21±4° C. and 55±20% humidity. Animals are maintained on a reverse phase light-dark cycle (lights off for 8 h from 09.30-17.30 h) during which time the room is illuminated by red light. Animals have free access to powdered high fat diet (VRF1 plus 20% lard; Special Diet Services (SDS), Witham, UK), ground chocolate (Cadbury's Dairy Milk®), ground peanuts (Big D®, Trigon Snacks Ltd.) and tap water at all times unless specified otherwise. Animals are housed for 20-24 weeks for the induction of obesity. The work reported in this manuscript is performed in accordance with UK law as detailed in the Animals (Scientific Procedures) Act 1986.
Approximately two weeks before the start of the studies, animals are housed singly in polypropylene cages with wire grid floors (so food spillage could be determined). Each cage contains an appropriate amount of paper bedding for warmth, environmental enrichment and to provide an area for animals to get off the wire grid floor. […]
Statistical analysis is performed by a Statistician. Body weight and food and water intake data are assessed by analysis of covariance (ANCOVA) with treatment as a factor, and baseline data as the covariate. […]

| SMILES | glucose tolerance (glucose AUC) [1] | glucose tolerance (glucose AUC) ([1]; listed as Empagliflozin) | AUC of insulin during OGTT [1] | plasma glucose [2] | plasma insulin [2] | body composition [3] | weight loss compared with vehicle-treated controls [4] | plasma leptin [2] | carcass fat / body fat [3] |
| --- | --- | --- | --- | --- | --- | --- | --- | --- | --- |
| OC[C@H]1O[C@@H](c2ccc(Cl)c(Cc3ccc(O[C@H]4CCOC4)cc3)c2)[C@H](O)[C@@H](O)[C@@H]1O [empagliflozin, 1-chloro-4-(β-D-glucopyranos-1-yl)-2-[4-((S)-tetrahydrofuran-3-yloxy)-benzyl]-benzene] | improve glucose tolerance | significantly improve glucose tolerance | reduced significantly; also recorded: significant reductions in the glucose and insulin AUC | significantly reduces plasma glucose | significantly reduce plasma insulin; also recorded: either a small effect to reduce plasma insulin or no impact | does not significantly affect body composition | – | – | – |
| CC(C)CC(N(C)C)C1(c2ccc(Cl)cc2)CCC1 (stereo not drawn) [sibutramine] | significantly improve glucose tolerance | – | significant reductions in the glucose and insulin AUC | significantly reduces plasma glucose | significantly reduce plasma insulin; also recorded: reduces plasma insulin | – | 7.0% | reduce plasma leptin | significantly and selectively reduce carcass fat |
| CCCCCCCCCCC[C@@H](C[C@@H]1OC(=O)[C@H]1CCCCCC)OC(=O)[C@H](CC(C)C)NC=O [orlistat] | does not significantly affect glucose tolerance | – | not significantly decreased | – | – | – | 2.4% | reduce plasma leptin | significantly and selectively reduce carcass fat |
